Results as given in patent US20230219898A1, “COMPOUNDS AND METHODS FOR BLOCKING APOPTOSIS AND INDUCING AUTOPHAGY” (President and Fellows of Harvard College, priority 2020, published 2023).

Assays:
[1] = Pharmacokinetic (DMPK) study of Apt-1, intracerebroventricular micro-osmotic pump; type: in vivo, mice; settings: mouse, hippocampus, ICV pump 20 mM Apt-1, 0.25 μl/h
Method: Apt-1 was delivered using intracerebroventricular Alzet micro-osmotic pump (20 mM Apt-1, […], release rate: […]). CSF was collected at 1 h, 6 h, and 24 h. Hippocampi were collected at 24 h. The concentrations of Apt-1 were measured by HPLC. The concentration of Apt-1 in hippocampus at 24 h was 6.27 μM. Mean ±s.e.m. (n=3 mice in each group).
WT mice (2 months old) were deeply anesthetized with isoflurane and immobilized in a stereotaxic frame using predetermined coordinates under aseptic conditions. All animals were observed during and after surgery, and an analgesic was administered after surgery. Apt-1 (20 mM, 100 μl, release rate: 0.25 μl/h) was delivered intracerebroventricularly via an ALZET micro-osmotic pump (ALZET Model 1002) and ALZET brain infusion kits into lateral ventricles (ML, −1.0 mm; AP, −0.5 mm; DV, 2.0 mm). The ALZET micro-osmotic pumps were fixed on the skulls of the mice by instant adhesive and the skin incision was closed by suture. At 1 h, 6 h and 24 h after the onset of delivery, cerebrospinal fluid (CSF) was carefully withdrawn by a Hamilton syringe from lateral ventricles (ML, −1.0 mm; AP, −0.5 mm; DV, 2.0 mm) for DMPK analysis. The mice were sacrificed at 24 h and the hippocampi were dissected for DMPK analysis. […] The concentrations of Apt-1 in collected samples were measured by HPLC as a custom service by the Scripps Research Institute Florida.

H4 cells = assay: Long-lived protein degradation assay; type: cell-based; settings: 10 μM, 6 h
Method: The rates of long-lived protein turnover in H4 cells treated with indicated compounds (10 μM, 6 h); rapamycin as positive control. Values expressed as fold changes relative to normal control cells. Mean ±s.e.m. from 4 independent experiments (n=4). One-way ANOVA, post hoc Dunnett's test. **P=0.002, 0.0023 (left to right); *P=0.0229; n.s. not significant (P=0.8669).
H4 cells were cultured with L-[3,4,5-^3H(N)]-leucine (0.1 μCi/ml) (PerkinElmer Life Sciences) for 24 h and chased in media with nonradioactive leucine for 18 h to let the degradation of short-lived proteins happen. Then the media was changed and incubated for additional 6 h along with different compounds (10 μM Apt-1, 10 μM ICCB-19, 10 μM ICCB-19i, 1 μM rapamycin). The media were recovered and treated with 10% trichloroacetic acid to separate trichloroacetic acid-soluble (amino acids) and trichloroacetic acid-insoluble (proteins) fractions. The cells were completely dissolved with 1N NaOH. Radioactivity was measured with a liquid scintillation analyzer (PerkinElmer). Long-lived protein degradation was calculated by dividing trichloroacetic acid-soluble radioactivity in the media by total radioactivity detected in the cells and media. The values were expressed as changes in fold from the value obtained in control cells.

Beclin 1 = assay: K63-linkage specific ubiquitination of Beclin 1 in MEFs; type: cell-based, mouse; settings: 6 h
Text: Anti-K63-linkage specific polyubiquitin antibody was used to conduct secondary immunoprecipitation. Samples were then immunoblotted with anti-Beclin 1 antibody to measure the K63-linkage specific ubiquitination of Beclin 1.

TRADD-N and TRAF2-C = biological target: T1, TRADD-N and TRAF2-C (Homo sapiens, UniProt Q15628); assay: NanoBiT protein-protein interaction assay TRADD-N / TRAF2-C; type: cell-based
T1 construct: expression constructs encoding Flag-TRADD-N(1-179) and HA-TRADD-C(180-312); expressed in transfected cells; host or cells: HEK293T
T1 sequence (Q15628 1-179): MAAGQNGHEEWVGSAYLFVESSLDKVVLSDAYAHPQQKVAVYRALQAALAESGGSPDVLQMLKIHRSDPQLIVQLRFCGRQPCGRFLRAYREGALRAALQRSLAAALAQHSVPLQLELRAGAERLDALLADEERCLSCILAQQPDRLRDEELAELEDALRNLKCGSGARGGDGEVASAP
Method: Mean ±s.d. from quadruplicates (n=4).
The Nano-Glo Live Cell assay kit (Promega) was used as follows: HEK293T cells were seeded at 7.5×10^3 cells per well in a white, clear-bottom 96-well plate 12 h before transfection (10 ng LgBiT-fused construct and 10 ng SmBiT-fused construct). After 24 h incubation, medium was removed and replaced with 100 μl Opti-MEM medium for 1 h at 37C. The Nano-Glo reagent was prepared as per manufacturer's instructions and added to each well immediately before the luminescence reading was taken. Luminescence was measured at 1 min intervals for 10 min on a plate reader and reported as relative light units (RLU). For quantitative comparison of LgBiT-SmBiT interactions, the peak values at the 2-3 min time point were used. Concentration of compounds used in NanoBiT assay: 10 μM (Apt-1, ICCB-19 or ICCB-19i).

[2] = test system: Htt-103Q, α-synuclein and tau expressing cells; assay: Misfolded protein accumulation and cell death in cell models (Htt-103Q, α-synuclein, tau); type: cell-based; settings: 10 μM
Method: Nuclei were labeled with DAPI. The amount of Htt-Q103-EGFP aggregates per mm^2 was quantified using ImageJ. Scale bar is 100 μm. Cell viability was measured by CellTiter-Glo assay. Survival rate is compared with vehicle-treated cells. Mean ±s.d. from technical triplicates (n=3), representative of 3 independent experiments. One-way ANOVA, post hoc Dunnett's tests. ***P<0.001; n.s. not significant, (P=0.8556, 0.9195, 0.8613, 0.5687, 0.5304, 0.9998, 0.6029, 0.2821 (left to right)).
RFP-α-Synuclein was quantified by Fluorescence/Cell (RLU) by ImageJ.
Mean ±s.d. from technical triplicates (n=3), representative of 3 independent experiments. Two-way ANOVA, post hoc Bonferroni's tests. ***P<0.001; *P=0.0262, 0.0367 (left to right).
Mean ±s.d. from technical triplicates (n=3), representative of 3 independent experiments. Two-way ANOVA, post hoc Bonferroni's tests.

Row | Compound | concentration at 24 h [1] | degradation of long-lived proteins (H4 cells) | Beclin 1 K63 ubiquitination (Beclin 1) | direct binding of TRADD-N and TRAF2 (NanoBiT) (TRADD-N and TRAF2-C) | protein accumulation and cell death with Htt-103Q, α-synuclein, tau [2]
1 | CN1CCN=C1SC(C(=O)NC1CCCCCC1)c1ccccc1 (centres unmarked) [Compound 30] | 6.27 µM | effectively induced | dramatically enhanced | dose-dependently reduced | reduced protein accumulation and cell death
2 | O=C(CSC1=NCCN1)NC1CCCCCC1 [ICCB-19] |  | effectively induced | dramatically enhanced |  | reduced protein accumulation and cell death
